Reference: patent US8476265B2, “Compounds-801” (AstraZeneca AB, priority 2010, dated 2013)

Assays:
Adrenergic β2 = target: T1, Adrenergic β2 (Homo sapiens, UniProt P07550); test: Adrenergic β2 mediated cAMP production in H292 cells (AlphaScreen), concentration response; assay type: cell-based; conditions: for EC50: 60 min, 300 μM rolipram, read-out: β2 pEC50 (converted); for β2 Intrinsic Activity: fraction relative to the maximum activity determined for formoterol
T1 construct: Adherent H292 cells are removed from tissue culture flasks by treatment with Accutase™ cell detachment solution; endogenous in cells; host or cells: H292 cells
T1 sequence (P07550 whole entry): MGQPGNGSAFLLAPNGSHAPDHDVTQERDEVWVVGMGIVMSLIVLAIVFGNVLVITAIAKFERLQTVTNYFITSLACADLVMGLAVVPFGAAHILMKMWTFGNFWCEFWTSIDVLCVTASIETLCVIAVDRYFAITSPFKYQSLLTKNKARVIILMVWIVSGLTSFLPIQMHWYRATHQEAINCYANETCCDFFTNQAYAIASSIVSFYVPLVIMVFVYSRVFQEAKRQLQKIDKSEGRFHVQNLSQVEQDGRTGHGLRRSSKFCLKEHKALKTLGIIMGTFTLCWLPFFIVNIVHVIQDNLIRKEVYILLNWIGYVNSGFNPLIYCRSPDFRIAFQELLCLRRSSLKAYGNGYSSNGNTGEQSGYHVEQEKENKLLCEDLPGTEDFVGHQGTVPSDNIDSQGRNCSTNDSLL
Protocol: Assay for Adrenergic 132 Mediated cAMP Production
H292 cells are grown in 225 cm2 flasks incubator at 37° C., 5% CO2 in RPMI medium containing 10% (v/v) FBS (foetal bovine serum) and 2 mM L-glutamine.
Adherent H292 cells re removed from tissue culture flasks by treatment with Accutase™ cell detachment solution for 15 minutes. Flasks are incubated for 15 minutes in a humidified incubator at 37° C., 5% CO2. Detached cells are re-suspended in RPMI media (containing 10% (v/v) FBS and 2 mM L-glutamine) at 0.1×10^6 cells per mL. 10000 cells in 100 μl, are added to each well of a tissue-culture-treated 96-well plate and the cells incubated overnight in a humidified incubator at 37° C., 5% CO2. The culture media is removed and cells are washed twice with 100 μL assay buffer and replaced with 50 μl assay buffer (HBSS solution containing 10 mM HEPES pH7.4 and 5 mM glucose). Cells are rested at room temperature for 20 minutes after which time 25 μl of rolipram (1.2 mM made up in assay buffer containing 2.4% (v/v) dimethylsulphoxide) is added. Cells are incubated with rolipram for 10 minutes after which time test compounds are added and the cells are incubated for 60 minutes at room temperature. The final rolipram concentration in the assay is 300 μM and final vehicle concentration is 1% (v/v) dimethylsulphoxide. The reaction is stopped by removing supernatants, washing once with 100 μL assay buffer and replacing with 50 μL lysis buffer. The cell monolayer is frozen at −80° C. for 30 minutes (or overnight).
AlphaScreen™ cAMP detection
The concentration of cAMP (cyclic adenosine monophosphate) in the cell lysate is determined using AlphaScreen™ methodology. The frozen cell plate is thawed for 20 minutes on a plate shaker then 10 μL of the cell lysate is transferred to a 96-well white plate. 40 μL of mixed AlphaScreen™ detection beads pre-incubated with biotinylated cAMP, is added to each well and the plate incubated at room temperature for 3 hours in the dark. The AlphaScreen™ signal is measured using an EnVision spectrophotometer (Perkin-Elmer Inc.) with the recommended manufacturer's settings. cAMP concentrations are determined by reference to a calibration curve determined in the same experiment using standard cAMP concentrations. Concentration response curves for agonists are constructed and data is fitted to a four parameter logistic equation to determine both the pEC50 and Intrinsic Activity. Intrinsic Activity is expressed as a fraction relative to the maximum activity determined for formoterol in each experiment.

[1] = target: T2, human muscarinic acetylcholine M3 receptor (Homo sapiens, UniProt P20309); test: Muscarinic 3 receptor binding assay ([3H]NMS competition, SPA), pIC50; conditions: [3H]NMS 0.1 nM, CHO-K1 cell membranes expressing human M3 receptor
T2 construct: expressed in transfected cells; host or cells: CHO-K1 (Chinese Hamster Ovary) cell membranes
T2 sequence (P20309 whole entry): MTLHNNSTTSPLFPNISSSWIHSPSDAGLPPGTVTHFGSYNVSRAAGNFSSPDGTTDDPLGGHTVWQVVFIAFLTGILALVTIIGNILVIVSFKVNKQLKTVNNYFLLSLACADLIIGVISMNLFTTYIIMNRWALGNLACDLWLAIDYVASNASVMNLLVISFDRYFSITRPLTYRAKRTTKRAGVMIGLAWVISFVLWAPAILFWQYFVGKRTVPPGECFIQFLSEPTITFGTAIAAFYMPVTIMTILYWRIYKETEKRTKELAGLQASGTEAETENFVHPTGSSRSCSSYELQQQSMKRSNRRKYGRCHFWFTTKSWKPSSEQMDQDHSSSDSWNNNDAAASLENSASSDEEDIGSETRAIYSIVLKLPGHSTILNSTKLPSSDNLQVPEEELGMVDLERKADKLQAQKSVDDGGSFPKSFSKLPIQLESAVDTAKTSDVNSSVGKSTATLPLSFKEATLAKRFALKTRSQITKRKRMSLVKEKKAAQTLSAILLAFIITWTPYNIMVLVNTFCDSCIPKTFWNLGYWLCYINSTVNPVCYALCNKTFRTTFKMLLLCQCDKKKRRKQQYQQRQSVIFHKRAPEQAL
Protocol: Muscarinic 3 Receptor Binding Assay
The affinity (pIC50) of compounds binding to the M3 receptor is determined by competition binding of [^3H]N-methyl scopolamine (NMS) to CHO-K1 (Chinese Hamster Ovary) cell membranes expressing the human muscarinic acetylcholine M3 receptor (M3-ACh) in a scintillation proximity assay (SPA) format.
SPA beads are precoated with membranes and then incubated at 2 mg of beads per well with serial dilutions of compounds of the invention, [^3H]NMS at 0.1 nM, quarter Kd (experimentally determined dissociation constant) and assay buffer (20 mM HEPES pH 7.4 containing 5 mM MgCl2 and 0.1% (w/v) bovine serum albumin). The assay is conducted in a final volume of 200 μL, in the presence of 1% (v/v) dimethyl sulphoxide (DMSO). Total binding of [^3H]NMS is determined in the absence of competing compound and non-specific binding of [^3H]NMS is determined in the presence of 1 μM atropine. The plates are incubated for 16 hours at room temperature and then read on Wallac Microbeta™ using a normalised ^3H protocol. The pIC50, defined as the negative logarithm of the molar concentration of compound required for 50% reduction in specific [^3H]-NMS binding, is determined.

| SMILES | EC50 (Adrenergic β2) [nM] | β2 Intrinsic Activity (Adrenergic β2) | IC50 [1] [nM] |
| --- | --- | --- | --- |
| CCN(CCNCCc1ccc(O)c2[nH]c(=O)sc12)C(=O)CCOCCc1cc(CCN2CCC3(CC2)CN(C(=O)c2csc(C(C)C)n2)CCO3)cs1 [Example 78, N-Ethyl-N-(2-(2-(4-hydroxy-2-oxo-2,3-dihydrobenzo[d]thiazol-7-yl)ethylamino)ethyl)-3-(2-(4-(2-(4-(2-isopropylthiazole-4-carbonyl)-1-oxa-4,9-diazaspiro[5.5]undecan-9-yl)ethyl)thiophen-2-yl)ethoxy)propanamide ditrifluoroacetate] | 12.6 | 1.0 | 2.51 |
| CCN(CCNCCc1ccc(O)c2c1OCC(=O)N2)C(=O)CCOCCc1cccc(CN2CCC3(CC2)CN(C(=O)c2csc(C4CCCC4)n2)CCO3)c1F [Example 25, 3-(3-((4-(2-Cyclopentylthiazole-4-carbonyl)-1-oxa-4,9-diazaspiro[5.5]undecan-9-yl)methyl)-2-fluorophenethoxy)-N-ethyl-N-(2-(2-(5-hydroxy-3-oxo-3,4-dihydro-2H-benzo[b][1,4]oxazin-8-yl)ethylamino)ethyl)propanamide ditrifluoroacetate] | 39.8 | 0.8 | 0.158 |
| CCc1nc(C(=O)N2CCOC3(CCN(CCc4ccc(CCOCCC(=O)N(CCCCCCO)CCNCCc5ccc(O)c6[nH]c(=O)sc56)cc4)CC3)C2)cs1 [Example 76, 3-(4-(2-(4-(2-Ethylthiazole-4-carbonyl)-1-oxa-4,9-diazaspiro[5.5]undecan-9-yl)ethyl)phenethoxy)-N-(2-(2-(4-hydroxy-2-oxo-2,3-dihydrobenzo[d]thiazol-7-yl)ethylamino)ethyl)-N-(6-hydroxyhexyl)propanamide diformate] | 50.1 | 1.0 | 0.631 |
| CC(C)c1nc(C(=O)N2CCOC3(CCN(CCc4cccc(CCOCCC(=O)N(CCNCCc5ccc(O)c6c5OCC(=O)N6)Cc5ccccc5)c4)CC3)C2)cs1 [Example 41, N-Benzyl-N-(2-(2-(5-hydroxy-3-oxo-3,4-dihydro-2H-benzo[b][1,4]oxazin-8-yl)ethylamino)ethyl)-3-(3-(2-(4-(2-isopropylthiazole-4-carbonyl)-1-oxa-4,9-diazaspiro[5.5]undecan-9-yl)ethyl)phenethoxy)propanamide ditrifluoroacetate] | 20 | 0.9 | 0.794 |

Other lines, results leading:

| EC50 (Adrenergic β2) [nM] | β2 Intrinsic Activity (Adrenergic β2) | IC50 [1] [nM] | SMILES |
| --- | --- | --- | --- |
| 20 | 1.0 | 2.51 | Cc1c(CCOCCC(=O)N(CCNCCc2ccc(O)c3c2OCC(=O)N3)C2CCCC2)cccc1CN1CCC2(CC1)CN(C(=O)c1csc(C(C)C)n1)CCO2 [Example 64, N-Cyclopentyl-N-(2-(2-(5-hydroxy-3-oxo-3,4-dihydro-2H-benzo[b][1,4]oxazin-8-yl)ethylamino)ethyl)-3-(3-((4-(2-isopropylthiazole-4-carbonyl)-1-oxa-4,9-diazaspiro[5.5]undecan-9-yl)methyl)-2-methylphenethoxy)propanamide ditrifluoroacetate] |
| 63.1 | 1.1 | 3.98 | CC(C)c1nc(C(=O)N2CCOC3(CCN(CCOc4ccc(CCOCCC(=O)N(CCNCCc5ccc(O)c6c5OCC(=O)N6)C5CCCCC5)cc4)CC3)C2)cs1 [Example 51, N-Cyclohexyl-N-(2-(2-(5-hydroxy-3-oxo-3,4-dihydro-2H-benzo[b][1,4]oxazin-8-yl)ethylamino)ethyl)-3-(4-(2-(4-(2-isopropylthiazole-4-carbonyl)-1-oxa-4,9-diazaspiro[5.5]undecan-9-yl)ethoxy)phenethoxy)propanamide ditrifluoroacetate] |
| 251 | 1.1 | 0.2 | CCCc1cc(C(=O)N2CCOC3(CCN(Cc4cccc(CCOCCC(=O)N(CCNCCc5ccc(O)c6c5OCC(=O)N6)C5CCCCC5)c4)CC3)C2)cs1 [Example 93, N-Cyclohexyl-N-(2-(2-(5-hydroxy-3-oxo-3,4-dihydro-2H-benzo[b][1,4]oxazin-8-yl)ethylamino)ethyl)-3-(3-((4-(5-propylthiophene-3-carbonyl)-1-oxa-4,9-diazaspiro[5.5]undecan-9-yl)methyl)phenethoxy)propanamide] |
